Assay results as given in patent publication US20160017206A1, “METHODS FOR IMMEDIATE SOURING CONTROL IN GASES OR FLUIDS PRODUCED FROM SULFIDOGENIC RESERVOIR SYSTEMS” (THE REGENTS OF THE UNIVERSITY OF CALIFORNIA, priority 2013, published 2016).

What was measured:
Type in all cases: cell-based
A. suillum = experiment: Fe(II) oxidation by A. suillum in anoxic culture with nitrate as electron acceptor; settings: 10 mM Fe(II) as FeCl2, 10 mM acetate as cosubstrate, within 7 days
Description: A. suillum readily oxidized (10 mM) Fe(II) in the form of FeCl2 with nitrate as the electron acceptor under strict anaerobic conditions (FIG. 8). With 10 mM acetate as a cosubstrate, more than 70% of the added iron was oxidized within 7 days. No Fe(II) was oxidized in the absence of cells or if the nitrate was omitted (data not shown). Fe(II) oxidation was initiated after complete mineralization of acetate to CO2, and growth was not associated with this metabolism.
When acetate was added as an additional carbon and energy source, cell density increased concomitant with acetate oxidation. Fe(II) oxidation occurred after acetate had been depleted and the culture had reached stationary phase (FIG. 8).

[1] = tested on: marine sediment slurry microcosms; experiment: Sulfide inhibition in marine sediment slurry microcosms; settings: chlorate added with Dechloromarinus strain NSS, incubation over 250 hours
Description: In the absence of chlorate and Dechloromarinus strain NSS sulfide is readily produced.

Desulfovibrio vulgaris = experiment: Inhibition of sulfidogenesis (sulfate reduction to sulfide) by D. vulgaris cultures
Description: Twelve tubes of basal anaerobic medium containing 15 mM lactate and 15 mM sulfate were inoculated with an active culture of D. vulgaris and incubated for 6 hours at 30° C., until a visible increase in optical density was observed. After six hours, the tubes were further inoculated with A. suillum and 15 mM chlorate prior to incubation overnight at 30° C., as outlined in Table 2.

Structure (SMILES) | added iron oxidized (A. suillum) | sulfide production in marine sediment slurry microcosms (FIG. 12) [1] | sulfide production by D. vulgaris relative to control cells incubated without chlorate (Desulfovibrio vulgaris; 15 mM chlorate alone, 24 hours, lactate as electron donor) [%] | sulfide production by D. vulgaris relative to control cells incubated in the absence of A. suillum and chlorate (Desulfovibrio vulgaris; 15 mM chlorate together with A. suillum, 24-hour incubation) [%] | antimicrobial activity against D. vulgaris (Desulfovibrio vulgaris; relatively low concentrations (15 mM)) | time course of sulfidogenesis by D. vulgaris (FIG. 14) (Desulfovibrio vulgaris; treated with A. suillum (PS) and chlorate at 48 hours, relative to untreated control)
[Cl][Fe][Cl] [FeCl2, Ferrous chloride] | more than 70% |  |  |  |  | 
[O-][Cl+2]([O-])O [chlorate] |  | sulfide inhibition | 49 | 17 | has antimicrobial activity against D. vulgaris | immediate inhibition of sulfide production and removal of sulfide from the medium
